The text below walks through data of patent publication EP3262036B1, “THERAPEUTIC PYRIDAZINE COMPOUNDS AND USES THEREOF” (priority 2015, dated 2016).

The IC50 is the midpoint of a concentration-inhibition curve.

Molecules are shown by their SMILES.

The target in this test is BRG1 (Homo sapiens, UniProt P51532). In words: biochemical. The format is binding. Conditions: BRG1 HTRF IC50 (µM). From the text:
IC50 measurements for inhibitors using BRG1 TR-FRET Binding Assay
(TR-FRET usually uses a lanthanide donor and a delayed reading to cut background.)

Chain of BRG1 (P51532 1448-1575): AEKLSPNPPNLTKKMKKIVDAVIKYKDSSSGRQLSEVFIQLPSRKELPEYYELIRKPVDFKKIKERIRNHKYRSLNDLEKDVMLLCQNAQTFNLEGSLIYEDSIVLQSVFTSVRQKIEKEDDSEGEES

In turn, `Nc1nnc(-c2ccccc2O)cc1N1CCN(Cc2ccccc2)CC1` [Example 12, 2-(6-amino-5-(4-benzylpiperazin-1-yl)pyridazin-3-yl)phenol] returned an IC50 of 0.0612 µM. Consider `Nc1nnc(-c2cc(F)cc(F)c2O)cc1-c1ccccc1` [Example 232, 2-(6-amino-5-phenylpyridazin-3-yl)-4,6-difluorophenol], for which the concentration for half-maximal inhibition (IC50) is 0.176 µM. The compound `Nc1nnc(-c2ccccc2O)cc1C1CCCN(Cc2ccccc2)C1` (stereo not shown) [Example 214, 2-[6-amino-5-(1-benzyl-3-piperidyl)pyridazin-3-yl]phenol] displayed an IC50 of 0.112 µM. Next, `CC1CN(c2cc(-c3ccccc3O)nnc2N)CCN1C(=O)Cc1ccccn1` (stereo not shown) [Example 125, 1-(4-(3-amino-6-(2-hydroxyphenyl)pyridazin-4-yl)-2-methylpiperazin-1-yl)-2-(pyridin-2-yl)ethan-1-one]: 0.0426 µM; `CC(C)(C)OC(=O)N1CCc2cc(CN3CCN(c4cc(-c5ccccc5O)nnc4N)CC3)ccc21` [Example 106, tert-butyl 5-[[4-[3-amino-6-(2-hydroxyphenyl)pyridazin-4-yl]piperazin-1-yl]methyl]indoline-1-carboxylate]: 0.689 µM; `Nc1nnc(-c2ccccc2O)cc1N1CC(OCc2ccccc2)C1` [Example 58, 2-(6-amino-5-(3-(benzyloxy)azetidin-1-yl)pyridazin-3-yl)phenol]: 0.0252 µM. Regarding `C[C@@H]1CN(c2cc(-c3ccccc3O)nnc2N)CCN1C(=O)c1cccnc1` [Example 156], the IC50 came out at 0.0435 µM.

On to `CN(C)C1CCN(c2cc(-c3ccccc3O)nnc2N)CC1` [Example 91, 2-[6-amino-5-[4-(dimethylamino)-1-piperidyl]pyridazin-3-yl]phenol], for which the IC50 was determined as 0.0929 µM.

The compound `Nc1nnc(-c2ccccc2O)cc1N1CC2CCC(C1)N2C(=O)c1cncs1` [Example 126, (3-(3-amino-6-(2-hydroxyphenyl)pyridazin-4-yl)-3,8-diazabicyclo[3.2.1]octan-8-yl)(thiazol-5-yl)methanone] displayed an IC50 of 0.0203 µM. The result for `CC1CN(c2cc(-c3ccccc3O)nnc2N)CCN1C(=O)c1cncs1` (stereo not shown) [Example 138, (4-(3-amino-6-(2-hydroxyphenyl)pyridazin-4-yl)-2-methylpiperazin-1-yl)(thiazol-5-yl)methanone] reads 0.0126 µM; that for `Nc1nnc(-c2ccccc2O)cc1C1CC1` [Example 190, 2-(6-amino-5-cyclopropylpyridazin-3 - yl)phenol], 0.0176 µM; that for `CCS(=O)(=O)N1CCN(c2cc(-c3ccccc3O)nnc2N)CC1C` (stereo not shown) [Example 110, 2-(6-amino-5-(4-(ethylsulfonyl)-3-methylpiperazin-1-yl)pyridazin-3-yl)phenol], 0.0219 µM. Next, `CNC(=O)CN1CCN(c2cc(-c3ccccc3O)nnc2N)CC1` [Example 24, 2-(4-(3-amino-6-(2-hydroxyphenyl)pyridazin-4-yl)piperazin-1-yl)-N-methylacetamide]: 0.0746 µM. Next, `Nc1nnc(-c2ccccc2O)cc1C1CCOCC1` [Example 213, 2-(6-amino-5-(tetrahydro-2H-pyran-4-yl)pyridazin-3-yl)phenol]: 0.0611 µM. Compound `CC1CN(c2cc(-c3ccccc3O)nnc2N)CCN1C(=O)C(C)(C)O` (stereo not shown) [Example 134, 1-(4-(3-amino-6-(2-hydroxyphenyl)pyridazin-4-yl)-2-methylpiperazin-1-yl)-2-hydroxy-2-methylpropan-1-one] had an IC50 of 0.0349 µM.

Compound `CNC(=O)CN1CCN(c2cc(-c3ccccc3O)nnc2N)C[C@H]1C` [Example 148, (R)-2-(4-(3-amino-6-(2-hydroxyphenyl)pyridazin-4-yl)-2-methylpiperazin-1-yl)-N-methylacetamide] gave an IC50 of 0.0613 µM. The result for `Cc1nc(CN2CCN(c3cc(-c4ccccc4O)nnc3N)CC2)co1` [Example 104, 2-[6-amino-5-[4-[(2-methyloxazol-4-yl)methyl]piperazin-1-yl]pyridazin-3-yl]phenol] reads 0.0569 µM.

`Nc1nnc(-c2ccccc2O)cc1OC1CCc2ccccc21` (stereo not shown) [Example 182, 2-(6-amino-5-((2,3-dihydro-1H-inden-1-yl)oxy)pyridazin-3-yl)phenol] came in with a 50% inhibitory concentration (IC50) of 0.606 µM.

As to `Nc1nnc(-c2ccccc2O)cc1OC1CCCNC1` (stereo not shown) [Example 245, 2-(6-amino-5-(piperidin-3-yloxy)pyridazin-3-yl)phenol], the midpoint of inhibition, the IC50, lay at 0.281 µM. The result for `CC(=O)Nc1ccc(-c2ccccc2O)nn1` [Example 205, N-(6-(2-hydroxyphenyl)pyridazin-3-yl)acetamide] reads 1.08 µM; that for `Cc1noc(C)c1C(=O)N1CCN(c2cc(-c3ccccc3O)nnc2N)CC1C` (stereo not shown) [Example 123, (4-(3-amino-6-(2-hydroxyphenyl)pyridazin-4-yl)-2-methylpiperazin-1-yl)(3,5-dimethylisoxazol-4-yl)methanone], 0.0879 µM; that for `CC1CN(c2cc(-c3ccccc3O)nnc2N)CCN1C(=O)c1ccccc1` (stereo not shown) [Example 62, (4-(3-amino-6-(2-hydroxyphenyl)pyridazin-4-yl)-2-methylpiperazin-1-yl)(phenyl)methanone], 0.0117 µM.

The compound `CN1CCC(c2cc(-c3ccccc3O)nnc2N)C1` (stereo not shown) [Example 216, 2-(6-amino-5-(1-methylpyrrolidin-3-yl)pyridazin-3-yl)phenol 2,2,2-trifluoroacetate] had an IC50 of 0.765 µM.

As for `CNC(=O)CN1C2CCC1CN(c1cc(-c3ccccc3O)nnc1N)C2` [Example 79, 2-(3-(3-amino-6-(2-hydroxyphenyl)pyridazin-4-yl)-3,8-diazabicyclo[3.2.1]octan-8-yl)-N-methylacetamide], the IC50 came out at 0.139 µM. Next, `Nc1nnc(-c2ccc(F)cc2O)cc1-c1ccccc1` [Example 231, 2-(6-amino-5-phenylpyridazin-3-yl)-5-fluorophenol]: 0.995 µM; `CC1CN(c2cc(-c3ccccc3O)nnc2N)CCN1C(=O)CN(C)C` (stereo not shown) [Example 162, 1-(4-(3-amino-6-(2-hydroxyphenyl)pyridazin-4-yl)-2-methylpiperazin-1-yl)-2-(dimethylamino)ethanone]: 0.0586 µM. Next, `CC(Oc1cc(-c2ccccc2O)nnc1N)c1cccnc1` (stereo not shown) [Example 171, 2-(6-amino-5-(1-(pyridin-3-yl)ethoxy)pyridazin-3-yl)phenol]: 0.0792 µM. `COCCS(=O)(=O)N1CCN(c2cc(-c3ccccc3O)nnc2N)C[C@H]1C` [Example 117, (R)-2-(6-amino-5-(4-((2-methoxyethyl)sulfonyl)-3-methylpiperazin-1-yl)pyridazin-3-yl)phenol] registered an IC50 of 0.0535 µM. Next, `C[C@@H]1CN(c2cc(-c3ccccc3O)nnc2N)CCN1C(=O)[C@@H]1CCCO1` [Example 141, ((R)-4-(3-amino-6-(2-hydroxyphenyl)pyridazin-4-yl)-2-methylpiperazin-1-yl)((S)-tetrahydrofuran-2-yl)methanone]: 0.033 µM; `Nc1nnc(-c2ccccc2O)cc1N1C[C@@H]2C[C@H]1CN2Cc1ccccc1` [Example 17, 2-(6-amino-5-((1S,4S)-5-benzyl-2,5-diazabicyclo[2.2.1]heptan-2-yl)pyridazin-3-yl)phenol]: 0.147 µM; `CC(C(=O)N(C)C)n1cc(-c2cc(-c3ccccc3O)nnc2N)cn1` (stereo not shown) [Example 194, 2-(4-(3-amino-6-(2-hydroxyphenyl)pyridazin-4-yl)-1 H-pyrazol-1-yl)-N,N-dimethylpropanamide]: 0.0247 µM.

`Cn1cc(CN2CCN(c3cc(-c4ccccc4O)nnc3N)CC2)cn1` [Example 107, 2-[6-amino-5-[4-[(1-methylpyrazol-4-yl)methyl]piperazin-1-yl]pyridazin-3-yl]phenol] returned an IC50 of 0.0877 µM.

For `Nc1nnc(-c2ccccc2O)cc1N1CCN(Cc2ccncc2)CC1` [Example 98, 2-[6-amino-5-[4-(4-pyridylmethyl)piperazin-1-yl]pyridazin-3-yl]phenol], the IC50 was determined as 0.0796 µM.

As for `CS(=O)(=O)CCN1CCN(c2cc(-c3ccccc3O)nnc2N)CC1` [Example 26, 2-(6-amino-5-(4-(2-(methylsulfonyl)ethyl)piperazin-1-yl)pyridazin-3-yl)phenol], the IC50 came to 0.0978 µM. Next, `C[C@@H]1CN(c2cc(-c3ccccc3O)nnc2N)C[C@@H](C)O1` [Example 242, 2-[6-amino-5-[(2R,6R)-2,6-dimethylmorpholin-4-yl]pyridazin-3-yl]phenol]: 0.0589 µM. The result for `N#Cc1cccc(CN2CCN(c3cc(-c4ccccc4O)nnc3N)CC2)c1` [Example 96, 3-[[4-[3-amino-6-(2-hydroxyphenyl)pyridazin-4-yl]piperazin-1-yl]methyl]benzonitrile] reads 0.0569 µM. The result for `Nc1nnc(-c2ccccc2O)cc1N1CCN(CC(F)(F)F)CC1` [Example 27, 2-(6-amino-5-(4-(2,2,2-trifluoroethyl)piperazin-1-yl)pyridazin-3-yl)phenol] reads 0.0755 µM; that for `Nc1nnc(-c2ccccc2O)cc1N1CCC(O)(Cc2ccccc2)C1` (stereo not shown) [Example 39, 1-(3-amino-6-(2-hydroxyphenyl)pyridazin-4-yl)-3-benzylpyrrolidin-3-ol], 0.113 µM. In the case of `C[C@@H]1CN(c2cc(-c3ccccc3O)nnc2N)C[C@H](C)O1` [Example 243, 2-[6-amino-5-[(2S,6R)-2,6-dimethylmorpholin-4-yl]pyridazin-3-yl]phenol], inhibition was half-maximal at 0.0324 µM (IC50). In turn, `Nc1nnc(-c2ccccc2O)cc1N1CCNC(=O)C1` [Example 53, 4-(3-amino-6-(2-hydroxyphenyl)pyridazin-4-yl)piperazin-2-one] came in with an IC50 of 0.316 µM. Next, `Nc1nnc(-c2ccccc2O)cc1N1CCN(S(=O)(=O)c2ccccc2)CC1` [Example 11, 2-(6-amino-5-(4-(phenylsulfonyl)piperazin-1-yl)pyridazin-3-yl)phenol]: 0.0612 µM; `CN(C)CC1CCCN(c2cc(-c3ccccc3O)nnc2N)C1` (stereo not shown) [Example 21, 2-(6-amino-5-(3-((dimethylamino)methyl)piperidin-1-yl)pyridazin-3-yl)phenol]: 0.116 µM; `CN(C)CCCOc1cc(-c2ccccc2O)nnc1N` [Example 175, 2-(6-amino-5-(3-(dimethylamino)propoxy)pyridazin-3-yl)phenol]: 0.117 µM.
